Measured values from patent publication EP4562003B1, “NOVEL 7-SUBSTITUTED INDOLE SULFONAMIDE DERIVATIVES” (F. Hoffmann-La Roche AG, priority 2022, dated 2024).

Each molecule was assayed against human GPR17 short isoform (Homo sapiens, UniProt Q13304) (assay: GPR17 cAMP assay (TR-FRET cAMP quantification, antagonist mode)). Conditions: CHO-K1 cells stably expressing human GPR17 short isoform; EC80 of agonist MDL29,951; forskolin 15µM; IBMX 0.5mM; 30 minutes at room temperature; read-out: hGPR17 cAMP IC50.
Chain of human GPR17 short isoform (Q13304 29-367): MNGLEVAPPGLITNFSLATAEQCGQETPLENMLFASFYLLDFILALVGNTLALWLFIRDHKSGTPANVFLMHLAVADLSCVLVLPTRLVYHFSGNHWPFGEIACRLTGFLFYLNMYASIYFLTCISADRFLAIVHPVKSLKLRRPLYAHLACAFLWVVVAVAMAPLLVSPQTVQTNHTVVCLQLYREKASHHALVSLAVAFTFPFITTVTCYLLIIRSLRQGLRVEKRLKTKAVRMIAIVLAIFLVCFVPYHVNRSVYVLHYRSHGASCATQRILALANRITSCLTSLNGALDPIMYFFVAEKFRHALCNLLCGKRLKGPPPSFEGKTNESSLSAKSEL
Type: cell-based
How it was run: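 CHO-K1 cells stably expressing untagged human GPR17 short isoform, 10'000 cells/well in HBSS/10mM HEPES/0.1% BSA pH 7.4. Compounds added with EC80 MDL29,951 plus 0.5mM IBMX, then 15µM forskolin; 30 min at room temperature. cAMP read by TR-FRET after 90 min lysis; normalized to reference antagonist maximal activity, sigmoidal fit.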

`COc1nc(NS(=O)(=O)c2c[nH]c3c(-c4cnco4)c(Cl)ccc23)nc(OC)c1OC(F)F` [Example 117, 6-chloro-N-[5-(difluoromethoxy)-4,6-dimethoxy-pyrimidin-2-yl]-7-oxazol-5-yl-1H-indole-3-sulfonamide] and `COc1nc(NS(=O)(=O)c2c[nH]c3c(-c4cnoc4)c(Cl)ccc23)nc(OC)c1OC(F)F` [Example 119, 6-chloro-N-[5-(difluoromethoxy)-4,6-dimethoxy-pyrimidin-2-yl]-7-isoxazol-4-yl-1H-indole-3-sulfonamide] are within 1.5-fold of each other in IC50: 0.106 µM for the first, 0.129 µM for the second.

Going from `COc1nc(NS(=O)(=O)c2c[nH]c3c(-c4cnoc4)c(Cl)ccc23)nc(OC)c1OCC(F)F` [Example 118, 6-chloro-N-[5-(2,2-difluoroethoxy)-4,6-dimethoxy-pyrimidin-2-yl]-7-isoxazol-4-yl-1H-indole-3-sulfonamide] to `COc1nc(NS(=O)(=O)c2c[nH]c3c(-c4cscn4)c(Cl)ccc23)nc(OC)c1OC(F)F` [Example 120, 6-chloro-N-[5-(difluoromethoxy)-4,6-dimethoxy-pyrimidin-2-yl]-7-thiazol-4-yl-1H-indole-3-sulfonamide], the IC50 rises from 0.063 µM to 0.149 µM (2.4-fold). The first is the more potent here.

With `COc1nc(NS(=O)(=O)c2c[nH]c3c(-c4ncc5n4CCC5)cccc23)nc(OC)c1CC(F)F` [Example 121, N-[5-(2,2-difluoroethyl)-4,6-dimethoxy-pyrimidin-2-yl]-7-(6,7-dihydro-5H-pyrrol[1,2-c]imidazol-3-yl)-1H-indole-3-sulfonamide] the IC50 was 0.046 µM.
